Measurements as given in patent publication US8017575B2 (priority 2004, dated 2011).
“And” between values parts separate entries of the source, which are not always exact repeats. Identical values can stand only once. Like-named read-outs stand apart in the source and are kept apart here.

Legend:
[1] = for Volume of Distribution, Percent Change (reduction): SMA ligation vs control
Description: Following the hemorrhage, another RIST was performed. […] The samples were centrifuged and the plasma was frozen immediately on dry ice, and stored at −80° C.
A snare was inserted around the artery so that it could be occluded. The animal was allowed to rest for a 30 minute interval.

[2] = tested on: beta receptors; assay: Heart rate test of beta blockade (propranolol vs isoproterenol); format: in vivo, rat
Description: Identification of Blocking Dose of […]: A standard surgical preparation, laparotomy and portal vein puncture were performed on an anesthetized rat. […] (Heart rate was measured using a Grass AC/DC Strain gauge amplifier and National Instrument data acquisition software.) Following stabilization, isoproterenol (0.5 μg/kg/min-IV) was administered at a rate of 0.1 ml/min for 5 minutes. Heart rate and glucose levels were analyzed in the last 30 seconds of isoproterenol administration and 15 minutes subsequent to discontinuation of isoproterenol infusion.

[3] = tested on: insulin sensitivity; assay: Rapid Insulin Sensitivity Test (RIST) before/after hemorrhage to 50 mmHg (hemorrhage-induced HDIR); format: in vivo, rat
Description: (§1) Surgical Procedures: Male Sprague Dawley rats (Charles River, St. Constant, Quebec, Canada) were housed in climate-controlled conditions for at least 6 days prior to surgical preparation. The animals were fasted for 8 hours, and then allowed ad lib access to standard rat chow for 2 hours prior to surgical preparation. […] The animals were weighed and anesthetized by an intraperitoneal injection of pentobarbital sodium (65 mg/ml, Somnotol, Biomeda-MTC Animal Health Inc., Cambridge Canada). Temperature was monitored by a rectal thermometer and kept constant at 37.5±0.5° C. by a heated surgical table and an overhead lamp. […] Animals were heparinized (100 IU/kg). Blood samples were taken by puncturing the arterial side of the arterial-venous shunt. The infusion of pharmacological agents was done by puncturing and inserting an infusion line into the silicon sleeve of the venous side of the shunt. Arterial pressure was measured by clamping the silicon sleeve on the venous side of the shunt, and measuring pressure from a side branch. A tracheotomy was performed (Micro-Renathane Tubing (095), Braintree Scientific Inc.) The left jugular vein was then cannulated with PE60 tubing in order to allow for continuous supplemental anesthetic (sodium pentobarbital, 2.16 mg/ml saline) infusion at a rate of 0.5 ml/hr/100 g of body weight. An infusion line was inserted into a silicon sleeve on the jugular supplement line for glucose administration and was controlled by a variable infusion pump (Genie, Kent Scientific Corporation, Litchfield, Mass.). The cannulation of the femoral artery and vein, the tracheotomy and the jugular vein cannulation is the standard surgical preparation.
(§2) After surgical completion, the animal was allowed to stabilize for 30 minutes, after which arterial blood samples (25 μl) were taken from the shunt and analyzed for blood glucose concentration using a glucose oxidase analyzer (Yellow Springs Instruments, Yellow Springs, Ohio). Samples were analyzed at five-minute intervals until 3 successive stable measurements were obtained. The mean of these 3 samples was used as the basal glucose level. […] At 45 seconds, a glucose infusion was initiated and adjusted to maintain euglycemia as determined by the basal glucose level. An arterial sample was taken from the arterial-venous shunt every 2 minutes during the RIST, and the glucose infusion was increased or decreased accordingly. […] The amount of glucose infused over the RIST (mg glucose/kg of body weight) is known as the RIST index.
(§3) Following the standard surgical procedure described above, a control RIST was performed. The anesthetized animal was hemorrhaged to an arterial blood pressure of 50 mmHg and held at this pressure for a 10 minute interval, by withdrawing additional blood as needed. Blood was not returned. The animal was hemorrhaged from the arterial side of the shunt, using a 23-gauge needle attached to a syringe, at a rate of 0.5 ml/min. Arterial blood pressure was measured from the vascular shunt during brief occlusion of the venous side of the shunt. Following the hemorrhage, arterial blood glucose levels were measured until they became stable for at least 15 minutes and another RIST was performed.
A control RIST was performed after a 30 minute stabilization period. […] A post hemorrhage RIST was then done as soon as a stable glycemic baseline had been established.
(§4) Effect of Phentolamine on HDIR following Hemorrhage: Following a standard surgical preparation, a laparotomy and portal puncture was performed. After a 30 minute stabilization period, a control RIST was performed. Following the RIST, phentolamine (400 μg/kg/min-IPV, 10 minute infusion at a rate of 0.025 ml/min), or cyclosomatostatin (20 μg/kg/min-IPV, continuous infusion at a rate of 0.025 ml/min) was administered. The rat was restabilized and then hemorrhaged to an arterial blood pressure of 50 mmHg and held at this pressure for a ten-minute interval.

[4] = Arterial blood glucose (glycemia) during drug infusion and hemorrhage; format: in vivo, rat
Description: as §2, §3
as §4, with “interval. […]” for “interval.”

[5] = tested on: insulin sensitivity; assay: RIST during somatostatin infusion (somatostatin-induced HDIR); format: in vivo, rat
Description: as §1, with “The cannulation of the femoral artery and vein, the tracheotomy and the jugular vein cannulation is the standard surgical preparation.” left out
After surgical completion, the animal was allowed to stabilize for 30 minutes, after which arterial blood samples (25 μl) were taken from the shunt and analyzed for blood glucose concentration using a glucose oxidase analyzer (Yellow Springs Instruments, Yellow Springs, Ohio). Samples were analyzed at five-minute intervals until 3 successive stable measurements were obtained. […] At 45 seconds, a glucose infusion was initiated and adjusted to maintain euglycemia as determined by the basal glucose level. […]

[6] = SMA ligation series, SMA ligated
[7] = hemorrhage series, control, insulin 50 mU/kg 30 second bolus

In the case of “insulin: Human insulin (Humulin R) purchased from Eli Lilly”, the Clearance [1, 6] is reported as 0.667 ± 0.0167 mL/min/kg, the “Volume of Distribution” value [1, 6] is reported as 0.03 ± 0.003 L/kg and the “Volume of Distribution, Percent Change (reduction)” value [1] is reported as 69.4±2.2%. The “Volume of Distribution, Percent Change (reduction)” value ([1]; listed as Insulin) was 69.39%, the “insulin concentration at the 1 minute mark of the RIST” value ([1]; after hemorrhage, n=4) was 27.5 ± 3.8 µg/L and the “time for insulin to decrease to baseline” value ([1]; both control and hemorrhage RISTs, 30 second bolus 50 mU/kg) was 5 min. The Clearance [1, 7] was 1.03 ± 0.15 mL/min/kg and the “Volume of Distribution” value [1, 7] was 0.056 ± 0.012 L/kg.

For CC(C)NCC(O)c1ccc(O)c(O)c1 (stereo not shown) [isoproterenol], the “heart rate (remained at original baseline level)” value ([2]; isoproterenol 0.5 μg/kg/min-IV subsequent to propranolol 1.5 mg/kg-IPV) was 415.3±5.9 beats/min and the “increase in basal heart rate” value ([2]; isoproterenol alone) was 125.2±9.8 beats/min.

For CC(C)NCC(O)COc1cccc2ccccc12 (stereo not shown) [propranolol], the “prevention of HDIR subsequent to hemorrhage” value ([3]; Example 8: propranolol 1.5 mg/kg-IPV) was “unable to prevent HDIR”, the “increase in glycemia following hemorrhage” value ([4]; propranolol 1.5 mg/kg-IPV prior to hemorrhage) was 17.4±3.3% and 17.4% and the “block of the acceleration in heart rate caused by isoproterenol” value ([2]; propranolol 1.5 mg/kg) was “completely block”. For the same compound, the “reduction in basal heart rate” value ([2]; propranolol 1.5 mg/kg-IPV) was 70.6±1.3 beats/min.

With cyclosomatostatin the “post hemorrhage RIST index” value ([3]; Example 9: cyclosomatostatin 20 μg/kg/min-IPV continuous, started prior to hemorrhage, initial RIST 214.3±8.8, n=5) was 217.5±8.5 mg of glucose/kg, the “prevention of HDIR following hemorrhage” value ([3]; Example 9: cyclosomatostatin 20 μg/kg/min-IPV prior to hemorrhage, n=5) was “prevented the occurrence of HDIR” and the “prevention of somatostatin-induced HDIR” value ([5]; Example 6: cyclosomatostatin 20 μg/kg/min-IPV continuous infusion, n=3) was “significantly prevented the occurrence of HDIR”. The “cyclosomatostatin and somatostatin RIST index” value ([5]; Example 6: cyclosomatostatin 20 μg/kg/min-IPV with somatostatin 0.16 μg/kg/min, control 215.9±7.4, n=3) was 213.1±8.6 mg of glucose/kg, the “blockade of somatostatin induced HDIR” value ([5]; pilot studies, cyclosomatostatin 10 μg/kg/min) was “did not produce a full blockade” and the “increase in glycemia following hemorrhage” value ([4]; cyclosomatostatin 20 μg/kg/min-IPV, infused 67.2±4.8 minutes) was 19.9±2.0%.

In the case of Cc1ccc(N(CC2=NCCN2)c2cccc(O)c2)cc1 [phentolamine], the “prevention of HDIR subsequent to hemorrhage” value ([3]; Example 7: phentolamine 400 μg/kg/min-IPV) is reported as “unable to prevent HDIR”, the “post hemorrhage RIST index” value ([3]; Example 7: phentolamine 400 μg/kg/min-IPV prior to hemorrhage, control 213.1±8.4, n=7) is reported as 145.4±9.2 mg of glucose/kg and the “decrease in insulin sensitivity (RIST index) between control and post hemorrhage RIST” value ([3]; Example 7: phentolamine 400 μg/kg/min-IPV prior to hemorrhage, n=7) is reported as 31.8%. For the same compound, the “decrease in insulin sensitivity (RIST index) between control and post hemorrhage RIST” value ([3]; Example 7: phentolamine 400 μg/kg/min-IPV prior to hemorrhage, n=7, listed as Phentolamine) was 31.8% and 31.8±5.5% and the “increase in glycemia during hemorrhage” value ([4]; phentolamine 400 μg/kg/min-IPV prior to hemorrhage (18.2±4.2% without agents)) was 1.1±0.9% and 1.1%.
